Measurements taken from the NIST ThermoML archive (doi:10.1016/j.jct.2013.08.021).
Numbers after ± are expanded uncertainties.

Key:
[1] = xn = mol fraction of the nth substance listed; conditions: 101 kPa, Liquid; for speed of sound: Sing-around technique in a fixed-path interferometer; for mass density: Vibrating tube method
[2] = refractive index (Na D-line) (dimensionless); xn = mol fraction of the nth substance listed; conditions: 101 kPa, Liquid, Standard Abbe refractometry

CCC[N+]1(C)CCCC1.O=S(=O)([N-]S(=O)(=O)C(F)(F)F)C(F)(F)F + CO
Conditions	mass density, 298.15 K [kg/m3]	mass density, 303.15 K [kg/m3]	mass density, 308.15 K [kg/m3]	refractive index, 298.15 K	refractive index, 303.15 K	refractive index, 308.15 K	speed of sound, 298.15 K [m/s]	speed of sound, 303.15 K [m/s]	speed of sound, 308.15 K [m/s]
[1], x2 = 0	1427.86 ± 0.6	1423.26 ± 0.6	1418.83 ± 0.59	–	–	–	1270.6 ± 1.5	1259.5 ± 1.5	1248.6 ± 1.5
[1], x2 = 0.0462	1423.37 ± 0.56	1418.86 ± 0.56	1414.35 ± 0.56	–	–	–	1268.8 ± 1.5	1257.7 ± 1.5	1246.8 ± 1.5
[1], x2 = 0.0901	1418.77 ± 0.53	1414.23 ± 0.53	1409.69 ± 0.52	–	–	–	1266.9 ± 1.5	1255.8 ± 1.5	1244.9 ± 1.5
[1], x2 = 0.1769	1408.88 ± 0.47	1404.34 ± 0.46	1399.8 ± 0.46	–	–	–	1262.7 ± 1.4	1251.6 ± 1.4	1240.6 ± 1.4
[1], x2 = 0.2722	1396.02 ± 0.41	1391.43 ± 0.4	1386.85 ± 0.4	–	–	–	1257.1 ± 1.4	1246 ± 1.4	1234.9 ± 1.4
[1], x2 = 0.3855	1376.42 ± 0.34	1371.67 ± 0.34	1367.04 ± 0.34	–	–	–	1248.7 ± 1.3	1237.4 ± 1.3	1226.2 ± 1.3
[1], x2 = 0.568	1329.02 ± 0.25	1324.31 ± 0.25	1319.61 ± 0.25	–	–	–	1228.6 ± 1.3	1217 ± 1.3	1205.7 ± 1.3
[1], x2 = 0.685	1279.72 ± 0.23	1274.95 ± 0.23	1270.18 ± 0.23	–	–	–	1208.5 ± 1.2	1196.8 ± 1.2	1185.2 ± 1.2
[1], x2 = 0.798	1201.72 ± 0.25	1196.89 ± 0.25	1192.05 ± 0.26	–	–	–	1180.4 ± 1.2	1168.2 ± 1.2	1156.1 ± 1.2
[1], x2 = 0.8984	1075.97 ± 0.33	1071.1 ± 0.32	1066.22 ± 0.33	–	–	–	1144.6 ± 1.2	1131.4 ± 1.2	1118.3 ± 1.2
[1], x2 = 0.9467	973.15 ± 0.59	968.3 ± 0.58	963.44 ± 0.59	–	–	–	1124.5 ± 1.2	1110.3 ± 1.1	1096.2 ± 1.1
[2], x2 = 0	–	–	–	1.42064 ± 0.00037	1.41926 ± 0.00037	1.41782 ± 0.00037	–	–	–
[2], x2 = 0.0462	–	–	–	1.42002 ± 0.00036	1.41862 ± 0.00036	1.41719 ± 0.00036	–	–	–
[2], x2 = 0.0901	–	–	–	1.41937 ± 0.00036	1.41801 ± 0.00036	1.41659 ± 0.00036	–	–	–
[2], x2 = 0.1769	–	–	–	1.41794 ± 0.00035	1.41675 ± 0.00035	1.41551 ± 0.00035	–	–	–
[2], x2 = 0.2722	–	–	–	1.41609 ± 0.00034	1.41503 ± 0.00034	1.4136 ± 0.00034	–	–	–
[2], x2 = 0.3855	–	–	–	1.41327 ± 0.00034	1.41206 ± 0.00034	1.41063 ± 0.00034	–	–	–
[2], x2 = 0.568	–	–	–	1.40659 ± 0.00033	1.4055 ± 0.00033	1.404 ± 0.00033	–	–	–
[2], x2 = 0.685	–	–	–	1.39953 ± 0.00032	1.39832 ± 0.00032	1.39695 ± 0.00032	–	–	–
[2], x2 = 0.798	–	–	–	1.38838 ± 0.00032	1.38703 ± 0.00032	1.38569 ± 0.00032	–	–	–
[2], x2 = 0.8984	–	–	–	1.37031 ± 0.00032	1.36877 ± 0.00032	1.36712 ± 0.00032	–	–	–
[2], x2 = 0.9467	–	–	–	1.35498 ± 0.00032	1.35335 ± 0.00032	1.35185 ± 0.00032	–	–	–

CCC[N+]1(C)CCCC1.O=S(=O)([N-]S(=O)(=O)C(F)(F)F)C(F)(F)F + CCCO
Conditions	mass density, 298.15 K [kg/m3]	mass density, 303.15 K [kg/m3]	mass density, 308.15 K [kg/m3]	refractive index, 298.15 K	refractive index, 303.15 K	refractive index, 308.15 K	speed of sound, 298.15 K [m/s]	speed of sound, 303.15 K [m/s]	speed of sound, 308.15 K [m/s]
[1], x2 = 0	1427.86 ± 0.6	1423.26 ± 0.6	1418.83 ± 0.59	–	–	–	1270.6 ± 1.5	1259.5 ± 1.5	1248.6 ± 1.5
[1], x2 = 0.0938	1411.16 ± 0.52	1406.64 ± 0.52	1402.12 ± 0.52	–	–	–	1265.5 ± 1.5	1254.3 ± 1.5	1243.4 ± 1.5
[1], x2 = 0.1942	1390.36 ± 0.45	1385.82 ± 0.44	1381.28 ± 0.44	–	–	–	1259.2 ± 1.4	1248 ± 1.4	1236.8 ± 1.4
[1], x2 = 0.3092	1361.8 ± 0.37	1357.24 ± 0.36	1352.68 ± 0.36	–	–	–	1250.8 ± 1.4	1239.4 ± 1.4	1228.1 ± 1.4
[1], x2 = 0.3925	1336.96 ± 0.32	1332.37 ± 0.31	1327.8 ± 0.31	–	–	–	1243.8 ± 1.3	1232.2 ± 1.3	1220.8 ± 1.3
[1], x2 = 0.5031	1296.59 ± 0.26	1291.99 ± 0.26	1287.39 ± 0.26	–	–	–	1233 ± 1.3	1221.2 ± 1.3	1209.4 ± 1.3
[1], x2 = 0.6035	1249.57 ± 0.23	1244.97 ± 0.23	1240.35 ± 0.23	–	–	–	1221.4 ± 1.2	1209.3 ± 1.2	1197.2 ± 1.2
[1], x2 = 0.6084	1246.93 ± 0.23	1242.32 ± 0.23	1237.71 ± 0.22	–	–	–	1220.8 ± 1.2	1208.7 ± 1.2	1196.6 ± 1.2
[1], x2 = 0.6973	1192.26 ± 0.22	1187.68 ± 0.22	1183.08 ± 0.22	–	–	–	1209.2 ± 1.2	1196.7 ± 1.2	1184.2 ± 1.2
[1], x2 = 0.8048	1102.79 ± 0.24	1098.29 ± 0.24	1093.76 ± 0.25	–	–	–	1194.6 ± 1.2	1181.5 ± 1.2	1168.3 ± 1.2
[1], x2 = 0.8994	988.76 ± 0.29	984.42 ± 0.28	980.03 ± 0.29	–	–	–	1187.7 ± 1.2	1173.4 ± 1.2	1159.1 ± 1.2
[1], x2 = 0.9465	912.36 ± 0.39	908.13 ± 0.4	903.87 ± 0.4	–	–	–	1192 ± 1.2	1176.5 ± 1.2	1161.2 ± 1.2
[2], x2 = 0	–	–	–	1.42064 ± 0.00037	1.41926 ± 0.00037	1.41782 ± 0.00037	–	–	–
[2], x2 = 0.0938	–	–	–	1.41963 ± 0.00036	1.41825 ± 0.00036	1.41678 ± 0.00036	–	–	–
[2], x2 = 0.1942	–	–	–	1.41841 ± 0.00035	1.41693 ± 0.00035	1.4155 ± 0.00035	–	–	–
[2], x2 = 0.3092	–	–	–	1.41669 ± 0.00034	1.41521 ± 0.00034	1.41375 ± 0.00034	–	–	–
[2], x2 = 0.3925	–	–	–	1.41523 ± 0.00034	1.41377 ± 0.00034	1.41227 ± 0.00034	–	–	–
[2], x2 = 0.5031	–	–	–	1.41287 ± 0.00033	1.41135 ± 0.00033	1.40984 ± 0.00033	–	–	–
[2], x2 = 0.6035	–	–	–	1.41013 ± 0.00032	1.40858 ± 0.00032	1.40703 ± 0.00032	–	–	–
[2], x2 = 0.6084	–	–	–	1.40996 ± 0.00032	1.40837 ± 0.00032	1.40681 ± 0.00032	–	–	–
[2], x2 = 0.6973	–	–	–	1.40685 ± 0.00032	1.40519 ± 0.00032	1.40364 ± 0.00032	–	–	–
[2], x2 = 0.8048	–	–	–	1.40163 ± 0.00031	1.40019 ± 0.00032	1.39885 ± 0.00032	–	–	–
[2], x2 = 0.8994	–	–	–	1.39494 ± 0.00031	1.39356 ± 0.00031	1.39205 ± 0.00031	–	–	–
[2], x2 = 0.9465	–	–	–	1.39023 ± 0.00031	1.38843 ± 0.00031	1.38653 ± 0.00031	–	–	–
